These are literature values, as cited in patent publication US20220387434A1, “COMBINATION OF A BTK INHIBITOR AND AN MDM2 INHIBITOR FOR CANCER TREATMENT” (QUOGUE IP HOLDINGS LLC, priority 2019, published 2022).

This data set deals with lymphocytes. To be noted: Ibr versus Veh (FIG. 3).

With `C=CC(=O)N1CCC[C@@H](n2nc(-c3ccc(Oc4ccccc4)cc3)c3c(N)ncnc32)C1` [Ibrutinib, 1-[(3R)-3-[4-amino-3-(4-phenoxyphenyl)pyrazolo[3,4-d]pyrimidin-1-yl]piperidin-1-yl]prop-2-en-1-one], the “mobilization of lymphocytes into the peripheral circulation” value is given as “mobilization”.
